The values that follow come from patent publication US5348941A, “Stabilizers for fibroblast growth factors” (Merck & Co., Inc., priority 1992, dated 1994).

The target of one experiment is acidic FGF (aFGF) (Homo sapiens, UniProt P05230). In words: biochemical. Particulars: for Approx. Molar Ratio (ligand to aFGF at 50% inhibition of aggregation): Table 1; for stabilization of aFGF against heat-induced aggregation: 0.5X and 10X ligand, FIGS. 6-8. From the text: Stabilization of aFGF can be determined by several independent methods including turbidity measurements, spectroscopic techniques, maintenance of protein mass, mitogenic activity and copper catalyzed oxidation. Since acidic fibroblast growth factor is unstable at physiological temperatures (undergoing large structural changes, including aggregation, which results in a loss of mitogenic and wound healing activity), human aFGF stability can be monitored by evaluating the turbidity of the pharmaceutical composition by following the kinetics of temperature induced aggregation of unfolded protein.
The kinetics of protein aggregation (stabilization) are monitored by the degree of light scattering at about OD350 nm using a Perkin Elmer Lambda 6 UV-visible spectrophotometer equipped with a six-cuvette holder. Temperature is controlled by circulating a water/ethylene glycol solution through the cell holder. About 0.9 ml of a PBS solution (6 mM sodium phosphate, 120 mM NaCl, pH 7.2) was placed into a cuvette and incubated at the appropriate temperature within the spectrophotometer. Once equilibrated, 100 μl of a 1 mg/ml aFGF solution containing the appropriate amount of ligand (stabilizer) is added to the cuvette and mixed manually by inversion. The change in optical density at 350 nm over time is continuously monitored. A dead time of 30s was present due to the mixing of the six samples in each experiment.
To examine the interactions between aFGF and heparin, a spectrophotometric turbidity assay was developed. This technique monitors the structural stability of aFGF by following the kinetics of temperature induced aggregation of unfolded protein by measurement of the degree of light scattering (turbidity) at 350 nm. The kinetics of protein aggregation were monitored by the degree of light scattering at 350 nm using a Perkin Elmer Lambda 6 UV-visible spectrophotometer equipped with a six-cuvette holder. Temperature was controlled by circulating a water/ethylene glycol solution through the cell holder. A PBS solution, 0.9 ml, (6 mM phosphate, 120 mM NaCl pH 7.2) was placed into a cuvette and incubated at the appropriate temperature within the spectrophotometer. Once equilibrated, 100 μl of a 1 mg/ml aFGF solution containing the appropriate amount of ligand was added to the cuvette and mixed manually by inversion. The change in optical density at 350 nm over time was continuously monitored. A dead time of 30s was present due to the mixing of the six samples in each experiment.
Samples contained 100 μg/ml aFGF in a PBS buffer at pH 7.2 with the indicated ratio of heparin to aFGF (wt:wt).
Samples contained 100 μg/ml protein in a PBS buffer, pH 7.2 with (a) no heparin, (b) 1.5 μg/ml, (c) 3 μg/ml, (d) 5 μg/ml, (e) 10 μg/ml and (f) 50 μg/ml heparin. Only representative data points are shown for clarity. […] Using the initial linear portion of the slope of turbidity vs. time plots as a measure of the rate of aggregation, the effect of polyanion concentration can be quantitatively characterized. The Y-axis represents the maximum rate of turbidity formation (ΔOD350 nm/min) normalized to sample (a) containing no heparin. The curve is drawn through data points for clarity only. The IC50 is the concentration of ligand at which the rate of aggregation is 50% of the control sample.

For another experiment, the target named is T1, aFGF (Homo sapiens, UniProt P05230).
T1 construct: The recombinant derived, 140 amino add form is the preferred form of aFGF; N-terminal methionine (MetHaFGF); made in house; host or cells: microbial cells (preferred embodiment)
In words: Thermal denaturation (Tm) of aFGF by circular dichroism. The conditions noted are these: for Tm of aFGF, circular dichroism: 3X ligand by weight. The experiment is classed as biochemical. Here is the method:
Circular Dichroism (CD) spectra are measured with an AVIV 62 DS spectropolarimeter. Samples of aFGF at about 100 μg/ml in a PBS buffer (6 mM sodium phosphate, 120 mM NaCl, pH 7.2) containing various ligands are placed into 1 mm pathlength cells and the cell temperature is controlled by circulating a water/ethylene glycol mixture through the cell holder. Thermal denaturation is carded out under computer control by increasing the temperature of the water bath in 2° C. increments, followed by a two-minute equilibration period at each temperature to allow the sample to reach thermal equilibrium. Reproducibility of the midpoint of these temperature melting curves (Tm) is ±2° C.
The maximum Tm values induced by 12 different ligands as determined by circular dichroism measurements at 228 nm are summarized in the first column of Table II. All of these ligands stabilize aFGF by 15°-25° C. in a manner similar to that originally observed with heparin. […] Furthermore, sulfate unions are found near analogous residues in the crystal structure of basic FGF, Eriksson et al., Proc. Natl. Acad. Sd. USA 88:3441-3445 (1991); Zhang et al., Proc. Natl. Acad. Sci. USA 88:3446-3450 (1991). Consequently, it seemed important to examine the ability of these ligands to stabilize aFGF during thermal denaturation as monitored by both fluorescence and circular dichroism. The Tm value of aFGF increased from 27° C. to 43° C. (fluorescence)and 45° C. to 51° C. (CD) when a 100 molar excess (3X by weight) of (IrCl6)^-3 was present. Similarly, sulfate union (120 mM) produced a species that was even more dramatically stabilized, melting at 57° C. (CD).
^(a) Thermal melting temperatures were measured by circular dichroism
Samples contained […] aFGF in PBS buffer pH 7.2 with excess ligand
(1-3× by weight except for 120 mM sodium sulfate and 10 mM
For orientation: CD spectra are sensitive to the conformation of chiral molecules.

[1] abbreviates: 40° C., 100 μg/ml aFGF, PBS pH 7.2, read-out: IC50: concentration of ligand at which the rate of heat-induced aggregation of aFGF is 50% of the sample without ligand (converted).
Setting [2] is: 40° C., 100 μg/ml aFGF, PBS pH 7.2.

Read-outs that look alike come from different tables or passages of the source.

Sequence of acidic FGF (aFGF) (P05230 16-155 limits assumed): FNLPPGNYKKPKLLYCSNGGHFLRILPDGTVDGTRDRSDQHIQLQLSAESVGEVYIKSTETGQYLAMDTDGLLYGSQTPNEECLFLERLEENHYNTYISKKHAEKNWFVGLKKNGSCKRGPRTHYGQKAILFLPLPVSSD
T1 sequence (P05230 16-155 limits assumed): as above

With `Nc1ncnc2c1ncn2[C@@H]1O[C@H](COP(=O)(O)OP(=O)(O)O)[C@@H](O)[C@H]1O` [ADP], the IC50 at acidic FGF (aFGF) (setting [1]) was 200 µM. Also, the “Approx. Molar Ratio (ligand to aFGF at 50% inhibition of aggregation)” value at acidic FGF (aFGF) (40° C.) is listed as 33.

`Nc1ncnc2c1ncn2[C@@H]1O[C@H](COP(=O)(O)OP(=O)(O)OP(=O)(O)OP(=O)(O)O)[C@@H](O)[C@H]1O` [AT4P]: the IC50 at acidic FGF (aFGF) (setting [1]) was 10 µM. Moreover, the “Approx. Molar Ratio (ligand to aFGF at 50% inhibition of aggregation)” value at acidic FGF (aFGF) (40° C.) came out at 1.6.

On to `Nc1ncnc2c1ncn2[C@@H]1O[C@H](COP(=O)(O)OP(=O)(O)OP(=O)(O)O)[C@@H](O)[C@H]1O` [ATP], for which the IC50 at acidic FGF (aFGF) amounted to 30 µM. Further, at acidic FGF (aFGF) (40° C.), the “stabilization of aFGF against heat-induced aggregation” value is “significantly enhance the thermal stability of aFGF” and the “Approx. Molar Ratio (ligand to aFGF at 50% inhibition of aggregation)” value amounted to 5.

With `N.N.O=S(=O)(O)O` [Ammonium sulfate, ammonium sulfate], at acidic FGF (aFGF) (40° C.), the “number of ligand molecules per aFGF (molar ratio) required for stabilization” value is “about 80” and the “Approx. Molar Ratio (ligand to aFGF at 50% inhibition of aggregation)” value was determined as 80. For the same molecule, at acidic FGF (aFGF) (setting [2]), the “IC50: concentration of ligand at which the rate of heat-induced aggregation of aFGF is 50% of the sample without ligand” value is 70 µg/mL.

Regarding `Nc1ncnc2c1ncn2[C@@H]1O[C@H](COP(=O)(O)OP(=O)(O)OP(=O)(O)OC[C@H]2O[C@@H](n3cnc4c(N)ncnc43)[C@H](O)[C@@H]2O)[C@@H](O)[C@H]1O` [Ap3A], the IC50 at acidic FGF (aFGF) (setting [1]) was 250 µM. Also, the “Approx. Molar Ratio (ligand to aFGF at 50% inhibition of aggregation)” value at acidic FGF (aFGF) (40° C.) came out at 42.

In the case of `Nc1ncnc2c1ncn2[C@@H]1O[C@H](COP(=O)(O)OP(=O)(O)OP(=O)(O)OP(=O)(O)OC[C@H]2O[C@@H](n3cnc4c(N)ncnc43)[C@H](O)[C@@H]2O)[C@@H](O)[C@H]1O` [Ap4A], the IC50 at acidic FGF (aFGF) (setting [1]) was 30 µM. Besides, the “Approx. Molar Ratio (ligand to aFGF at 50% inhibition of aggregation)” value on acidic FGF (aFGF) (40° C.) came out at 5.

On to `Nc1ncnc2c1ncn2[C@@H]1O[C@H](COP(=O)(O)OP(=O)(O)OP(=O)(O)OP(=O)(O)OP(=O)(O)OC[C@H]2O[C@@H](n3cnc4c(N)ncnc43)[C@H](O)[C@@H]2O)[C@@H](O)[C@H]1O` [Ap5A], for which, at acidic FGF (aFGF) (setting [1]), the IC50 was 10 µM. On acidic FGF (aFGF) (40° C.), the “Approx. Molar Ratio (ligand to aFGF at 50% inhibition of aggregation)” value came out at 1.6.

In the case of `Nc1ncnc2c1ncn2[C@@H]1O[C@H](COP(=O)(O)OP(=O)(O)OP(=O)(O)OP(=O)(O)OP(=O)(O)OP(=O)(O)OC[C@H]2O[C@@H](n3cnc4c(N)ncnc43)[C@H](O)[C@@H]2O)[C@@H](O)[C@H]1O` [Ap6A], the IC50 on acidic FGF (aFGF) (setting [1]) is 3 µM. The “Approx. Molar Ratio (ligand to aFGF at 50% inhibition of aggregation)” value at acidic FGF (aFGF) (40° C.) was determined as 0.5.

For `O=C(O)[C@H](O)[C@@H](O)[C@H](O[C@@H]1O[C@H](CO)[C@H](O)[C@H](O)[C@H]1O)[C@H](O)CO` [Lactobionic acid], at acidic FGF (aFGF) (40° C.), the “number of ligand molecules per aFGF (molar ratio) required for stabilization” value is “about 80” and the “Approx. Molar Ratio (ligand to aFGF at 50% inhibition of aggregation)” value was 80. In addition, the IC50 on acidic FGF (aFGF) (setting [1]) is 502 µM.

`Nc1ncnc2nc[nH]c12.O=S(=O)(O)O` [adenine sulfate]: the “stabilization of aFGF against heat-induced aggregation” value at acidic FGF (aFGF) (40° C.) is reported as “actually alestabilize the growth factor”.

Consider `OC[C@H]1O[C@@H]2O[C@H]3[C@H](O)[C@@H](O)[C@@H](O[C@H]4[C@H](O)[C@@H](O)[C@@H](O[C@H]5[C@H](O)[C@@H](O)[C@@H](O[C@H]6[C@H](O)[C@@H](O)[C@@H](O[C@H]7[C@H](O)[C@@H](O)[C@@H](O[C@H]8[C@H](O)[C@@H](O)[C@@H](O[C@H]1[C@H](O)[C@H]2O)O[C@@H]8CO)O[C@@H]7CO)O[C@@H]6CO)O[C@@H]5CO)O[C@@H]4CO)O[C@@H]3CO` [β-cyclodextrin (sulfur content zero), β-cyclodextrin], for which the “Tm of aFGF, circular dichroism” value at aFGF was determined as 46 °C.

On to Chondroitin Sulfate B, for which the “IC50: concentration of ligand at which the rate of heat-induced aggregation of aFGF is 50% of the sample without ligand” value on acidic FGF (aFGF) (setting [2]) is 50 µg/mL. In addition, the “effect on rate and extent of aggregation of aFGF” value (shortened to “effect on rate and extent”) was “only a slight effect” at acidic FGF (aFGF) (40° C., 0.5X ligand by weight); “significantly slows down the rate and extent of aggregation” on acidic FGF (aFGF) (40° C., 10X ligand by weight).

For Fucoidin, the “IC50: concentration of ligand at which the rate of heat-induced aggregation of aFGF is 50% of the sample without ligand” value against acidic FGF (aFGF) (setting [2]) worked out at 6 µg/mL. For the same molecule, at acidic FGF (aFGF) (40° C.), the “stabilization of aFGF against heat-induced aggregation” value is “dramatically stabilize aFGF from heat-induced aggregation”.

Consider chondroitin sulfate A, for which the “effect on rate and extent” value was “only a slight effect” on acidic FGF (aFGF) (40° C., 0.5X ligand by weight); “significantly slows down the rate and extent of aggregation” at acidic FGF (aFGF) (40° C., 10X ligand by weight).

In the case of chondroitin sulfate C, the “effect on rate and extent” value is “only a slight effect” at acidic FGF (aFGF) (40° C., 0.5X ligand by weight); “significantly slows down the rate and extent of aggregation” at acidic FGF (aFGF) (40° C., 10X ligand by weight).

On to keratan sulfate, for which the “stabilization of aFGF against heat-induced aggregation” value on acidic FGF (aFGF) (40° C.) is “much less effective”.

Regarding poly-glutamic acid, at acidic FGF (aFGF) (40° C.), the “stabilization of aFGF against heat-induced aggregation” value was “significantly enhance the thermal stability of aFGF”.

For the molecule polyaspartic acid [poly-Asp], the “stabilization of aFGF against heat-induced aggregation” value on acidic FGF (aFGF) (40° C.) was “significantly enhance the thermal stability of aFGF”.

Take polyvinyl sulfate: the “stabilization of aFGF against heat-induced aggregation” value at acidic FGF (aFGF) (40° C.) is “much less effective”.

For propyl-hydroxy-β- cyclodextrin, at aFGF (3X by weight), the “stabilization of aFGF, circular dichroism” value was “did not stabilize addic FGF”. Further, the “Tm of aFGF, circular dichroism” value on aFGF came to 47 °C.

For the molecule sulodexide [reference compound], the “stabilization of aFGF against heat-induced aggregation” value on acidic FGF (aFGF) (40° C.) was “dramatically stabilize aFGF from heat-induced aggregation”.
